Measurements: PMC11601558, “SLC6A19 inhibition facilitates urinary neutral amino acid excretion and lowers plasma phenylalanine” (JCI Insight, 2024)

Key:
healthy volunteers = experiment: Phase 1 safety and tolerability, multiple ascending dose (MAD) cohorts; conditions: for Any CTCAE Grade ≥ 3 / Any TEAE / Death / SAE / TEAE Anxiety / TEAE Contusion / TEAE Dehydration / TEAE Dizziness / TEAE Drug withdrawal headache / TEAE Dysmenorrhea / TEAE Flushing / TEAE Headache / TEAE Musculoskeletal pain / TEAE Myalgia / TEAE Nausea / TEAE Oropharyngeal pain / TEAE Rash / TEAE Skin injury / TEAE Somnolence / TEAE Swelling of eyelid / TEAE Thirst / TEAE Vascular access site pain / TEAEs leading to IP discontinuation: n = 6
Protocol: Eligible participants included males and females 18 to 55 years of age, medically healthy with no clinically notable medical history, a BMI of 18–40 kg/m^2 and total body weight > 50 kg (110 lbs), and who have been nonsmokers for at least 2 weeks prior to and throughout dosing.
In both SAD and MAD studies, safety and tolerability were assessed by AE monitoring, clinical laboratory tests (blood chemistries, hematology, coagulation, serology, and urinalysis), vital signs, 12-lead electrocardiograms, and physical examinations. Safety assessment and corresponding samples were collected on day-1 prior to dosing and days 1, 2, 3, and 8 for the SAD study or throughout the 14 days of dosing and day 21 for the MAD study.

Pah^enu2 mice = experiment: Plasma Phe in Pah^enu2 mice after JN-170; assay type: in vivo, mouse
Protocol: Male homozygous BTBR-Pah<enu2>/J (Pah^enu2) aged 10–13 weeks were purchased from Jackson Laboratory (no. 002232). Immediately before dosing, each animal’s bladder was manually emptied and a plasma sample was drawn. Animals were dosed by oral gavage with vehicle (10% DMSO, 20% 2-hydroxypropyl-β-cyclodextrin [Sigma-Aldrich]) followed by a 1-week washout prior to dosing with JN-170 at doses ranging from 50 to 250 mg/kg. Following dosing with vehicle or JN-170, animals were individually placed in metabolic cages to collect urine samples. After collection of each urine sample, cages were rinsed with ultra-pure water to recover residual analytes. Blood samples were collected predose as well as 1, 3, 8, 12, and 24 hours after dosing with vehicle or JN-170 into tubes with EDTA as a […], and plasma was separated by centrifuging samples at 2,200g for 5 minutes at 4°C. Throughout the study, mice had access to food and water ad libitum. Plasma and urine samples were stored at –80°C until processing.Ten-week-old male WT C57Bl/6J animals (Si Bei Fu Laboratory Animal Technology Co. Ltd.) were dosed either with vehicle or 50–250 mg/kg JN-170 by oral gavage and blood and urine samples were collected as described. All animals had unrestricted access to food and water during the study; C57Bl/6J were kept on rodent maintenance diet from Beijing Keao Xieli, Pah^enu2 mice were kept on Teklad diet no. T.2018.
Plasma sample analyses were carried out by liquid chromatography tandem mass spectrometry (LC-MS/MS). Plasma samples were mixed 1:1 with carbamazepine or ^13C6-Phe as internal standards for JN-170 and Phe, respectively. Plasma proteins were precipitated by adding 4 volumes of acetonitrile (ACN) and 0.1% formic acid (FA) followed by centrifugation for 5 minutes at 2,100g. Supernatants were diluted 1:1 in ACN and 0.1% FA. For JN-170, a Waters HSS T3 reversed phase column was used for separation using a binary gradient of 0.1% FA in water (mobile phase A) to 0.1% in ACN (mobile phase B). At a flow rate of 0.8 mL/min, the mobile phase gradient increased from an initial 25% phase B to 95% phase B over 30 seconds. After, 1.5 minutes, the gradient was returned to 25% mobile phase B. For detection of Phe, an Acquity UPLC ethylene bridged hybrid (BEH) amide column was used, with a binary gradient of 10 mM ammonium acetate in 95:5:1 H2O:ACN:FA (mobile phase A) to 10 mM ammonium acetate in 95:5:1 ACN:H2O:FA (mobile phase B). At a flow rate of 0.5 mL/min, the mobile phase gradient changed from an initial 100% phase B to 50% phase B over 2.1 minutes. It was returned to 100% phase B after 4 minutes. Analytes were detected using a Sciex API-5500 in multiple reaction monitoring mode using an electrospray ionization source in the positive ion mode with the following ion transitions: m/z 435.2/84.1 (JN-170), 237.1/194.1 (carbamazepine), 166.1/120.1 (Phe), 172.2/126.2 for (^13C6-Phe). Analyte concentrations were calculated with a 1/×^2 linear regression over a concentration range of 1 or 2 to 5,000 ng/mL for JN-170 and 0.05–100 ng/mL for Phe.
IC50 values for transport inhibition in cells overexpressing SLC6A19 and TMEM27 were calculated using a 4-parameter logistic regression in Collaborative Drug Discovery (CDD). Reported IC50 values are geometric means of 4–6 independent experiments. For postmortem intestinal transport assays, single outliers of quadruplicate replicates were excluded from the calculation if a signal value’s distance to the mean exceeded 35% of the signal average. The IC50 values of individual experiments were calculated with a 3- or 4-parameter logistic regression using GraphPad Prism 9. The reported IC50 value represents the geometric mean of n = 5 experiments from 3 individual donors. Statistical comparison of urinary Phe excretion in Pah^enu2 mice treated with vehicle or JN-170 was conducted using 1-way analysis of variance (ANOVA) with Tukey’s post hoc comparison. […]

NC(=O)N1CCC[C@@H](N(C(=O)NCc2ccc(OC(F)(F)F)cc2F)C2CC2)C1 [JNT-517]
Any CTCAE Grade ≥ 3 (healthy volunteers; MAD 25 mg BID): 0 Number (%) | Any TEAE (healthy volunteers; MAD 25 mg BID): 5 (83.3) Number (%) | Death (healthy volunteers; MAD 25 mg BID): 0 Number (%) | SAE (healthy volunteers; MAD 25 mg BID): 0 Number (%) | TEAE Anxiety (healthy volunteers; MAD 25 mg BID): 0 Number (%) | TEAE Contusion (healthy volunteers; MAD 25 mg BID): 0 Number (%) | TEAE Dehydration (healthy volunteers; MAD 25 mg BID): 0 Number (%) | TEAE Dizziness (healthy volunteers; MAD 25 mg BID): 0 Number (%) | TEAE Drug withdrawal headache (healthy volunteers; MAD 25 mg BID): 1 (16.7) Number (%) | TEAE Dysmenorrhea (healthy volunteers; MAD 25 mg BID): 0 Number (%) | TEAE Flushing (healthy volunteers; MAD 25 mg BID): 0 Number (%) | TEAE Headache (healthy volunteers; MAD 25 mg BID): 3 (50) Number (%) | TEAE Musculoskeletal pain (healthy volunteers; MAD 25 mg BID): 1 (16.7) Number (%) | TEAE Myalgia (healthy volunteers; MAD 25 mg BID): 0 Number (%) | TEAE Nausea (healthy volunteers; MAD 25 mg BID): 0 Number (%) | TEAE Oropharyngeal pain (healthy volunteers; MAD 25 mg BID): 1 (16.7) Number (%) | TEAE Rash (healthy volunteers; MAD 25 mg BID): 0 Number (%) | TEAE Skin injury (healthy volunteers; MAD 25 mg BID): 1 (16.7) Number (%) | TEAE Somnolence (healthy volunteers; MAD 25 mg BID): 1 (16.7) Number (%) | TEAE Swelling of eyelid (healthy volunteers; MAD 25 mg BID): 1 (16.7) Number (%) | TEAE Thirst (healthy volunteers; MAD 25 mg BID): 1 (16.7) Number (%) | TEAE Vascular access site pain (healthy volunteers; MAD 25 mg BID): 0 Number (%) | TEAEs leading to IP discontinuation (healthy volunteers; MAD 25 mg BID): 1 (16.7) Number (%) | Any CTCAE Grade ≥ 3 (healthy volunteers; MAD 75 mg BID): 0 Number (%) | Any TEAE (healthy volunteers; MAD 75 mg BID): 2 (33.3) Number (%) | Death (healthy volunteers; MAD 75 mg BID): 0 Number (%) | SAE (healthy volunteers; MAD 75 mg BID): 0 Number (%) | TEAE Anxiety (healthy volunteers; MAD 75 mg BID): 1 (16.7) Number (%) | TEAE Contusion (healthy volunteers; MAD 75 mg BID): 0 Number (%) | TEAE Dehydration (healthy volunteers; MAD 75 mg BID): 0 Number (%) | TEAE Dizziness (healthy volunteers; MAD 75 mg BID): 1 (16.7) Number (%) | TEAE Drug withdrawal headache (healthy volunteers; MAD 75 mg BID): 0 Number (%) | TEAE Dysmenorrhea (healthy volunteers; MAD 75 mg BID): 1 (16.7) Number (%) | TEAE Flushing (healthy volunteers; MAD 75 mg BID): 1 (16.7) Number (%) | TEAE Headache (healthy volunteers; MAD 75 mg BID): 1 (16.7) Number (%) | TEAE Musculoskeletal pain (healthy volunteers; MAD 75 mg BID): 0 Number (%) | TEAE Myalgia (healthy volunteers; MAD 75 mg BID): 0 Number (%) | TEAE Nausea (healthy volunteers; MAD 75 mg BID): 1 (16.7) Number (%) | TEAE Oropharyngeal pain (healthy volunteers; MAD 75 mg BID): 0 Number (%) | TEAE Rash (healthy volunteers; MAD 75 mg BID): 1 (16.7) Number (%) | TEAE Skin injury (healthy volunteers; MAD 75 mg BID): 0 Number (%) | TEAE Somnolence (healthy volunteers; MAD 75 mg BID): 0 Number (%) | TEAE Swelling of eyelid (healthy volunteers; MAD 75 mg BID): 0 Number (%) | TEAE Thirst (healthy volunteers; MAD 75 mg BID): 0 Number (%) | TEAE Vascular access site pain (healthy volunteers; MAD 75 mg BID): 1 (16.7) Number (%) | TEAEs leading to IP discontinuation (healthy volunteers; MAD 75 mg BID): 0 Number (%) | Any CTCAE Grade ≥ 3 (healthy volunteers; MAD 150 mg QD): 0 Number (%) | Any TEAE (healthy volunteers; MAD 150 mg QD): 4 (66.7) Number (%) | Death (healthy volunteers; MAD 150 mg QD): 0 Number (%) | SAE (healthy volunteers; MAD 150 mg QD): 0 Number (%) | TEAE Anxiety (healthy volunteers; MAD 150 mg QD): 0 Number (%) | TEAE Contusion (healthy volunteers; MAD 150 mg QD): 1 (16.7) Number (%) | TEAE Dehydration (healthy volunteers; MAD 150 mg QD): 1 (16.7) Number (%) | TEAE Dizziness (healthy volunteers; MAD 150 mg QD): 0 Number (%) | TEAE Drug withdrawal headache (healthy volunteers; MAD 150 mg QD): 0 Number (%) | TEAE Dysmenorrhea (healthy volunteers; MAD 150 mg QD): 0 Number (%) | TEAE Flushing (healthy volunteers; MAD 150 mg QD): 0 Number (%) | TEAE Headache (healthy volunteers; MAD 150 mg QD): 2 (33.3) Number (%) | TEAE Musculoskeletal pain (healthy volunteers; MAD 150 mg QD): 0 Number (%) | TEAE Myalgia (healthy volunteers; MAD 150 mg QD): 1 (16.7) Number (%) | TEAE Nausea (healthy volunteers; MAD 150 mg QD): 0 Number (%) | TEAE Oropharyngeal pain (healthy volunteers; MAD 150 mg QD): 0 Number (%) | TEAE Rash (healthy volunteers; MAD 150 mg QD): 0 Number (%) | TEAE Skin injury (healthy volunteers; MAD 150 mg QD): 0 Number (%) | TEAE Somnolence (healthy volunteers; MAD 150 mg QD): 0 Number (%) | TEAE Swelling of eyelid (healthy volunteers; MAD 150 mg QD): 0 Number (%) | TEAE Thirst (healthy volunteers; MAD 150 mg QD): 0 Number (%) | TEAE Vascular access site pain (healthy volunteers; MAD 150 mg QD): 0 Number (%) | TEAEs leading to IP discontinuation (healthy volunteers; MAD 150 mg QD): 0 Number (%) | incidence of AE (healthy volunteers; MAD cohorts, all JNT-517 doses (11 of 18)): 61.1%

N#Cc1ccc(-c2noc([C@]3(C(F)(F)F)CCN(C(=O)NCCC4(N)CC4)C3)n2)cc1 [JN-170]
plasma Phe, mean ± SD (Pah^enu2 mice; 50 mg/kg, 3 hours): 984 ± 135 µM | plasma Phe lower than predose baseline (Pah^enu2 mice; 50 mg/kg, 3 hours after dosing): 45% | plasma Phe decrease from baseline (Pah^enu2 mice; 50 mg/kg, 12 hours): 34% | plasma Phe, mean ± SD (Pah^enu2 mice; 50 mg/kg, 12 hours): 1,119 ± 124 μM | plasma Phe, mean ± SD (Pah^enu2 mice; 250 mg/kg, 3 hours): 764 ± 43 µM | reduction in plasma Phe vs predose (Pah^enu2 mice; 250 mg/kg, 3 hours): 54% | plasma Phe, mean ± SD (Pah^enu2 mice; 250 mg/kg, 12 hours): 648 ± 106 µM | reduction in plasma Phe vs predose (Pah^enu2 mice; 250 mg/kg, 12 hours): 61% | lowering of plasma Phe (Pah^enu2 mice; plasma exposures with target coverage above the IC75): > 40%
